Data set [1] relates to CWR22-RV1 (prostate) cell lines. Description: MTS growth inhibition assay, CWR22-RV1. It counts as cell-based. As to conditions: Homo sapiens, CWR22Rv1, separate experiments.
In data set [2] the test system is NCI-H460 (lung cancer) human tumor cell line. Put plainly: MTS growth inhibition assay, NCI-H460. It counts as cell-based. The method, then: (§1) The agents PDX, PDX-10a, PDX-10b, were evaluated for growth inhibitory activity against, MDA-MB-435, SKBR-3 and NCI-H460 human tumor cell lines. Growth inhibition was measured by MTS assay following three hours of continuous treatment and a seventy-two hour recovery incubation. The purpose of these studies was to determine the cytotoxic activity of the compounds in the tumor cell lines studies studied.
(§2) Materials and Methods. Preparation of PDX-10a and PDX-10b was performed as discussed in Examples 1-2. The PDX compounds were diluted in dimethylsulfoxide (DMSO) at a concentration of 20 mM. From this solution a stock solution of 2 mM was made by dilution with phosphate-buffered saline (PBS). This 2 mM stock solution in 10% DMSO/90% PBS was used to make 2× concentrations of the titration series in cell growth medium which was added to the cell cultures in a 1:1 ratio to make 1× concentrations. Cell lines—The human tumor cell lines: MDA-MB-435 (melanoma), SKBR-3 (breast cancer) and NCI-H460 (lung cancer) were cultured in RPMI medium (RPMI; Nova Tech, Grand Island, N.Y.) containing ten percent dialyzed fetal bovine serum (FBS; Nova Tech). Once cells reached seventy percent confluency, they were trypsinized and resuspended in an alternate media (RPMI containing five percent dialyzed FBS (Hyclone, Logan, Utah). One day prior to treatment (Day 0), cultures were suspended at a concentration of 1−7.5×10^4 cell/ml and 100 μl aliquots were plated into each well of a 96-well microtiter plate at a final concentration of 1×10^3-7.5×10^3 cells/well. Cells were incubated for 24 hours at 37° C. prior to exposure with agents.
(§3) Test Agents—racemic PDX, and individual diastereomers PDX-10a and PDX-10b were prepared as described above. Cells were treated 24 hours after plating (Day 1) with vehicle (media) alone or the above test agents for three hours at concentrations between 3 μM and 10 μM.
(§4) Single Agent Pulse Studies—Treatment with test agents or standard agents (controls) was initiated 24 hours after plating cells (Day 1). Cells were incubated at 37° C. with each of the test agents or a “chemococktail” (positive control) consisting of 215 μM Etoposide, 20 μM Taxol, 38.5 nM Velcade at final concentration for three hours. Following treatment, drug was removed, growth media added, and cells incubated at 37° C. for 72 hours. Following incubation, the viable cell number was quantified by the MTS assay described below. Experiments were repeated twice at the same concentrations. Results from these studies were used to calculate an IC50 value (concentration of drug that inhibits cell growth by 50% of the vehicle) for each compound. IC50 values were generated with Prizm software.
(§5) MTS Assay—Cell viability was determined using the MTS assay. This colorimetric procedure measures conversion of the MTS reagent (a tetrazolium salt) to formazan by living cells. Formazan production was quantified by spectrophotometric measurement at 490 nm and is proportional to viable cell number. For these studies, cells were cultured and treated as listed above. At the end of the treatment, 20 μl MTS tetrazolium (1.9 mg/ml in PBS, pH 6.0) was added to the cells for 1 hour at 37° C. Absorbance (OD) values were measured using a Dynex HD microplate reader at a single wavelength of 490 nm.
Data Analysis—Data from each experiment was collected and expressed as OD490 versus the log10 of the test agent concentration. Using the statistical analysis package of the Prizm analytical software (GraphPad, San Diego, Calif.), a non-linear curve fit was performed which yielded the 50% inhibition concentration of the test article (IC50).

The nature of data set [3]: Pharmacokinetics in dog (PDX-T-07054-D). Particulars: both sexes, dog, plasma, 0.7 mg/kg, dog, racemic mixture, males and females (mean). Format: in vivo. The method, then: (§6) Bioanalytical methods were developed and validated for quantitation of the 2 pralatrexate C10 diastereomers (PDX-10a and PDX-10b) in human, rat and dog plasma and urine. The basic bioanalytical method involves extraction of PDX-10a and PDX-10b from the matrix utilizing C18 solid-phase extraction (SPE) cartridges followed by derivatization (methylation with acetyl chloride) of the diastereomers for separation detection. The derivatized extracts are injected on a chiral high-performance liquid chromatography (HPLC) column for quantitation of each diastereomer by liquid chromatography-tandem mass spectrometry (LC/MS/MS). The lower limit of quantitation (LLOQ) for both diastereomers in plasma and urine matrices was 0.5 ng/mL. […]

The test system of data set [4] is MDA-MB-435 (melanoma) human tumor cell line. Put plainly: MTS growth inhibition assay, MDA-MB-435. Particulars: 3 h treatment, 72 h recovery. Format: cell-based. As for the experimental part:
as §1, §2, §3, §4, §5
(§7) Data Analysis—Data from each experiment was collected and expressed as OD490 versus the log10 of the test agent concentration. […]

The subject of data set [5] is SKBR-3 (breast cancer) human tumor cell line. Put plainly: MTS growth inhibition assay, SKBR-3. It counts as cell-based. Particulars: SK-BR-3, SK-BR3 (breast), 3 h treatment, 72 h recovery. The method, then: as §1
Materials and Methods. Preparation of PDX-10a and PDX-10b was performed as discussed in Examples 1-2. The PDX compounds were diluted in dimethylsulfoxide (DMSO) at a concentration of 20 mM. From this solution a stock solution of 2 mM was made by dilution with phosphate-buffered saline (PBS). This 2 mM stock solution in 10% DMSO/90% PBS was used to make 2× concentrations of the titration series in cell growth medium which was added to the cell cultures in a 1:1 ratio to make 1× concentrations. Cell lines—The human tumor cell lines: MDA-MB-435 (melanoma), SKBR-3 (breast cancer) and NCI-H460 (lung cancer) were cultured in RPMI medium (RPMI; Nova Tech, Grand Island, N.Y.) containing ten percent dialyzed fetal bovine serum (FBS; Nova Tech). […]
Single Agent Pulse Studies—Treatment with test agents or standard agents (controls) was initiated 24 hours after plating cells (Day 1). […] Following incubation, the viable cell number was quantified by the MTS assay described below. […]
MTS Assay—Cell viability was determined using the MTS assay. […] Formazan production was quantified by spectrophotometric measurement at 490 nm and is proportional to viable cell number. […] Absorbance (OD) values were measured using a Dynex HD microplate reader at a single wavelength of 490 nm.
as §7

A short description of data set [6]: Pharmacokinetics in rat (PDX-T-07034-R). It counts as in vivo. Particulars: both sexes, plasma, 5 mg/kg, racemic mixture, males and females (mean). As for the experimental part:
as §6

Data set [7] is described as follows: Pharmacokinetics in human (PDX-008, noncompartmental). Format: in vivo. Particulars: both sexes, human, plasma, intravenous, 30 mg/m^2, human, racemic mixture, males and females (mean). As for the experimental part: Bioanalytical methods were developed and validated for quantitation of the 2 pralatrexate C10 diastereomers (PDX-10a and PDX-10b) in human, rat and dog plasma and urine. The basic bioanalytical method involves extraction of PDX-10a and PDX-10b from the matrix utilizing C18 solid-phase extraction (SPE) cartridges followed by derivatization (methylation with acetyl chloride) of the diastereomers for separation detection. The derivatized extracts are injected on a chiral high-performance liquid chromatography (HPLC) column for quantitation of each diastereomer by liquid chromatography-tandem mass spectrometry (LC/MS/MS). The lower limit of quantitation (LLOQ) for both diastereomers in plasma and urine matrices was 0.5 ng/mL.
In humans, PDX-10b clearance was approximately 50% lower for both renal clearance (CLren) and nonrenal clearance (CLnonren). The lower clearance and ˜2-fold lower volume of distribution at steady state (Vdss) of PDX-10b are likely responsible for the 2-fold higher plasma exposure of PDX-10b compared with PDX-10a that is observed in humans. However, the plasma concentration-time profiles for both diastereomers declined in parallel, and terminal elimination half-life (t1/2term) for both diastereomers was virtually identical. The biological cause for the observed stereoselectivity across species is unknown, but may be due to isomeric differences in plasma protein binding. Isomeric differences in tissue distribution and/or renal and hepatobiliary transport may contribute as well.

[8] abbreviates: C1D1, 30 mg/m^2 (0.81 mg/kg), n = 10.
The mark [9] stands for this setting: C1D6 or C2D6, 30 mg/m^2 (0.81 mg/kg), n = 6.

The source of these data is patent US8835433B2, “Optically pure diastereomers of 10-Propargyl-10-deazaaminopterin and methods of using same for the treatment of cancer” (Allos Therapeutics, Inc., priority 2010, dated 2014).

The structures appear in SMILES notation.

With `C#CCC(Cc1cnc2nc(N)nc(N)c2n1)c1ccc(C(=O)N[C@@H](CCC(=O)O)C(=O)O)cc1` (mixture of isomers) [PDX, (2S)-2-[[4-[(1RS)-1-[(2,4-diaminopteridin-6-yl)methyl]but-3-ynyl]benzoyl]amino]pentanedioic acid, reference compound], the IC50 in data set [1] was 0.0083 µM; in data set [2] (Homo sapiens, NCI-H460, NCI-H460 (lung), 3 h treatment, 72 h recovery, MTS) it was 0.1 µM; in data set [2] (Homo sapiens, NCI-H460, NCI-H460 repeat assay) it was 0.124 µM; in data set [2] (NCI-H460 repeat assay), 0.124 µM; in data set [4] (Homo sapiens, MDA-MB-435, MDA-MB-435 (melanoma)), 0.129 µM; in data set [4] (MDA-MB-435 (melanoma)), 0.129 µM. In data set [5], this molecule displayed an IC50 of 0.0271 µM. Also, the area under the curve AUC(0-inf) in data set [3] (Day 1, 0.7 mg/kg (14 mg/m^2)) is 1560 ng·h/mL; in data set [3] (Day 281, 0.7 mg/kg (14 mg/m^2)) it was 1340 ng·h/mL; in data set [6] (Day 1, 5 mg/kg (30 mg/m^2)) it was 4870 ng·h/mL; in data set [6] (Day 85, 5 mg/kg (30 mg/m^2)) it was 4500 ng·h/mL; in data set [7] (setting [8]) it was 4460 ng·h/mL; in data set [7] (setting [9]), 3530 ng·h/mL. In addition, the highest concentration (Cmax) in data set [3] (Day 1, 0.7 mg/kg (14 mg/m^2)) is 1790 ng/mL; in data set [3] (Day 281, 0.7 mg/kg (14 mg/m^2)) it was 649 ng/mL; in data set [6] (Day 1, 5 mg/kg (30 mg/m^2)) it was 19200 ng/mL; in data set [6] (Day 85, 5 mg/kg (30 mg/m^2)), 14300 ng/mL; in data set [7] (setting [8]), 5820 ng/mL; in data set [7] (setting [9]) it was 4960 ng/mL.
